Molecular target: Transient receptor potential cation channel subfamily V member 1 (Homo sapiens, UniProt Q8NER1)
Test: Ca2+ Influx Functional Assay for the Determination of in Vitro Activity.
Conditions: not given
Experimental: The functional antagonist activity of compounds at the TRPV1 receptor was determined with a Ca2+ influx assay by measuring the effect on capsaicin (0.05 uM) evoked increase in intracellular Ca2+ levels using cells stably expressing recombinant human TRPV1. All compounds were tested over an 11-point half-log concentration range. The fluorescent Ca2+ chelating dye fluo-4 was used as an indicator of the relative levels of Ca2+ in a 96-well format using a fluorescence imaging plate reader. Fluorescence readings were made at 1-5 s intervals over the 240 s course of the experimental run. The peak increase in relative fluorescence units was calculated and expressed as a percentage of the 0.05 uM capsaicin (control) response. Curve fits of the data were solved using a four-parameter logistic Hill equation in GraphPad Prism, and IC50 values were calculated.

Sequence of Transient receptor potential cation channel subfamily V member 1 (Q8NER1 whole entry): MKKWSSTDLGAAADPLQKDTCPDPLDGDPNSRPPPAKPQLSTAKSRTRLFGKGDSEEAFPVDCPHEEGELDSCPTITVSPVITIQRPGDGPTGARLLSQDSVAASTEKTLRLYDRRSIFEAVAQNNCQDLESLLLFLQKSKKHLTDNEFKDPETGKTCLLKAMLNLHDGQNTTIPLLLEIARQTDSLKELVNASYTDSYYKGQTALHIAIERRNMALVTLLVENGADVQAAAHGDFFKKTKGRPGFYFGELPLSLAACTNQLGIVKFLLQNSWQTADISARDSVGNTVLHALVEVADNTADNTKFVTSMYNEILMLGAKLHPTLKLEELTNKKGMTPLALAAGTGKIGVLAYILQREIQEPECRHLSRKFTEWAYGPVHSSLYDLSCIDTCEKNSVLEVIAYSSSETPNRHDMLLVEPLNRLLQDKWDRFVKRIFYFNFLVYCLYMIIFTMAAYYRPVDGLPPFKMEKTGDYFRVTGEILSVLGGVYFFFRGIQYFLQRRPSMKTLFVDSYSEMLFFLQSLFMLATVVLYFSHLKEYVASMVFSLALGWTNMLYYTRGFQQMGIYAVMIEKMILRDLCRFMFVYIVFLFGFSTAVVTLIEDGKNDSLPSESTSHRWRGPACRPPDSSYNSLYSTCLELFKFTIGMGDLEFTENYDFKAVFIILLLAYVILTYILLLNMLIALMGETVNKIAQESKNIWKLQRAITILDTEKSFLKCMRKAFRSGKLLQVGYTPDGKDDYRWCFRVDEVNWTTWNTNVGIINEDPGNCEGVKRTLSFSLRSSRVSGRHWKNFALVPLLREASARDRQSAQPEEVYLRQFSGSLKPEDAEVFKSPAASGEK

| Structure (SMILES) | EC50 |
| --- | --- |
| CCN1CCc2cc(CNC(=O)Nc3cccc4[nH]ncc34)ccc21 [1-[(1-ethyl-2,3-dihydro-1H-indol-5-yl)methyl]-3-1H-indazol-4-ylurea] | 0.285 µM |
| Cc1cc(N2[C@@H]3CCC[C@H]2CC3)ccc1CNC(=O)Nc1cccc2[nH]ncc12 [1-({4-[(1R,5S)-8-azabicyclo[3.2.1]octan-8-yl]-2-methylphenyl}methyl)-3-1H-indazol-4-ylurea] | 0.029 µM |
| O=C(NCc1cc(F)c(N2[C@@H]3CCC[C@H]2CC3)c(F)c1)Nc1cccc2[nH]ncc12 [1-({4-[(1R,5S)-8-azabicyclo[3.2.1]octan-8-yl]-3,5-difluorophenyl}methyl)-3-1H-indazol-4-ylurea] | 0.0126 µM |
| Cn1c2ccccc2c2cc(CNC(=O)Nc3cccc4[nH]ncc34)ccc21 [3-1H-indazol-4-yl-1-[(9-methyl-9H-carbazol-3-yl)methyl]urea] | 0.902 µM |
| O=C(NCc1ccc(N2[C@@H]3CCC[C@H]2CC3)c(Cl)c1)Nc1cccc2[nH]ncc12 [1-({4-[(1R,5S)-8-azabicyclo[3.2.1]octan-8-yl]-3-chlorophenyl}methyl)-3-1H-indazol-4-ylurea] | 0.0204 µM |
| O=C1C[C@H]2CC[C@@H](C1)N2c1cc(F)c(CNC(=O)Nc2cccc3[nH]ncc23)cc1F [1-({2,5-difluoro-4-[(1R,5S)-3-oxo-8-azabicyclo[3.2.1]octan-8-yl]phenyl}methyl)-3-1H-indazol-4-ylurea] | 0.157 µM |
| Cn1ncc2c(NC(=O)NCc3ccc(N4[C@@H]5CCC[C@H]4CC5)cc3Cc3ccccc3)cccc21 [1-({4-[(1R,5S)-8-azabicyclo[3.2.1]octan-8-yl]-2-benzylphenyl}methyl)-3-(1-methyl-1H-indazol-4-yl)urea] | 0.019 µM |
| CC(C)c1cc(N2[C@@H]3CCC[C@H]2CC3)ccc1CNC(=O)Nc1cccc2[nH]ncc12 [1-({4-[(1R,5S)-8-azabicyclo[3.2.1]octan-8-yl]-2-(propan-2-yl)phenyl}methyl)-3-1H-indazol-4-ylurea] | 0.0353 µM |
| O=C(NCc1cc(F)c(N2[C@@H]3CC[C@H]2CC2(C3)OCCO2)cc1F)Nc1cccc2[nH]ncc12 [1-({4-[(1S,5R)-8-azaspiro[bicyclo[3.2.1]octane-3,2'-[1,3]dioxolane]]-2,5-difluorophenyl}methyl)-3-1H-indazol-4-ylurea] | 0.082 µM |
| O=C(NCc1ccc(N2[C@@H]3CCC[C@H]2CC3)c(F)c1F)Nc1cccc2[nH]ncc12 [1-({4-[(1R,5S)-8-azabicyclo[3.2.1]octan-8-yl]-2,3-difluorophenyl}methyl)-3-1H-indazol-4-ylurea] | 0.0255 µM |
| CC(C)(C)CCc1cc(N2[C@@H]3CCC[C@H]2CC3)ccc1CNC(=O)Nc1cccc2[nH]ncc12 [1-({4-[(1R,5S)-8-azabicyclo[3.2.1]octan-8-yl]-2-(3,3-dimethylbutyl)phenyl}methyl)-3-1H-indazol-4-ylurea] | 0.0103 µM |
| O=C(NCc1ccc(N2[C@@H]3CCC[C@H]2CC3)c(C(F)(F)F)c1)Nc1cccc2[nH]ncc12 [1-({4-[(1R,5S)-8-azabicyclo[3.2.1]octan-8-yl]-3-(trifluoromethyl)phenyl}methyl)-3-1H-indazol-4-ylurea] | 0.0269 µM |
| O=C(NCc1ccc(N2[C@@H]3CCC[C@H]2CC3)c(F)c1)Nc1cccc2[nH]ncc12 [1-({4-[(1R,5S)-8-azabicyclo[3.2.1]octan-8-yl]-3-fluorophenyl}methyl)-3-1H-indazol-4-ylurea] | 0.0148 µM |
| O=C(NCc1ccc(N2[C@@H]3CCC[C@H]2CC3)c(Br)c1)Nc1cccc2[nH]ncc12 [1-({4-[(1R,5S)-8-azabicyclo[3.2.1]octan-8-yl]-3-bromophenyl}methyl)-3-1H-indazol-4-ylurea] | 0.0432 µM |
| Cc1cc(CNC(=O)Nc2cccc3[nH]ncc23)ccc1N1[C@@H]2CCC[C@H]1CC2 [1-({4-[(1R,5S)-8-azabicyclo[3.2.1]octan-8-yl]-3-methylphenyl}methyl)-3-1H-indazol-4-ylurea] | 0.0198 µM |

Same assay, conditions: pH 7.4; 22 °C

| Structure (SMILES) | EC50 |
| --- | --- |
| O=C(NCc1ccc(N2CCCCCC2)c(F)c1)Nc1cccc2[nH]ncc12 [1-{[4-(azepan-1-yl)-3-fluorophenyl]methyl}-3-1H-indazol-4-ylurea] | 0.0142 µM |
| CC1CCN(c2ccc(CNC(=O)Nc3cccc4cnccc34)cc2)CC1 [1-isoquinolin-5-yl-3-{[4-(4-methylpiperidin-1-yl)phenyl]methyl}urea] | 0.0093 µM |
| O=C(NCc1ccc(N2CCCCCC2)cc1)Nc1cccc2cnccc12 [3-{[4-(azepan-1-yl)phenyl]methyl}-1-isoquinolin-5-ylurea] | 0.0033 µM |
| O=C(NCc1ccc(N2CCOCC2)cc1)Nc1cccc2cnc(Cl)cc12 [1-(3-chloroisoquinolin-5-yl)-3-{[4-(morpholin-4-yl)phenyl]methyl}urea] | 0.156 µM |
| O=C(NCc1ccc(N2CCCCCCC2)cc1)Nc1cccc2cnccc12 [3-{[4-(azocan-1-yl)phenyl]methyl}-1-isoquinolin-5-ylurea] | 0.0047 µM |
| Nc1cc2c(NC(=O)NCc3ccc(N4CCCCCC4)cc3)cccc2cn1 [1-(3-aminoisoquinolin-5-yl)-3-{[4-(azepan-1-yl)phenyl]methyl}urea] | 0.0098 µM |
| O=C(NCc1ccc(N2[C@@H]3CCC[C@H]2CC3)cc1)Nc1cccc2cnccc12 [3-({4-[(1R,5S)-8-azabicyclo[3.2.1]octan-8-yl]phenyl}methyl)-1-isoquinolin-5-ylurea] | 0.0033 µM |
| O=C(NCc1ccc(N2CCCCCC2)cc1C(F)(F)F)Nc1cccc2[nH]ncc12 [1-{[4-(azepan-1-yl)-2-(trifluoromethyl)phenyl]methyl}-3-1H-indazol-4-ylurea] | 0.133 µM |
| O=C(NCc1ccc(N2[C@@H]3CCC[C@H]2CC3)cc1C(F)(F)F)Nc1cccc2[nH]ncc12 [1-({4-[(1R,5S)-8-azabicyclo[3.2.1]octan-8-yl]-2-(trifluoromethyl)phenyl}methyl)-3-1H-indazol-4-ylurea] | 0.0545 µM |
| O=C(NCc1ccc(C(F)(F)F)cc1)Nc1cccc2cnccc12 [1-isoquinolin-5-yl-3-{[4-(trifluoromethyl)phenyl]methyl}urea] | 0.0021 µM |
| O=C(NCc1ccc(N2CCOCC2)cc1)Nc1cccc2cnccc12 [1-isoquinolin-5-yl-3-{[4-(morpholin-4-yl)phenyl]methyl}urea] | 0.091 µM |
| O=C(NCc1ccc(N2CCCCCC2)cc1C(F)(F)F)Nc1cccc2cnccc12 [3-{[4-(azepan-1-yl)-2-(trifluoromethyl)phenyl]methyl}-1-isoquinolin-5-ylurea] | 0.0057 µM |
| O=C(NCc1ccc(N2CCCCCC2)cc1Cl)Nc1cccc2cnccc12 [3-{[4-(azepan-1-yl)-2-chlorophenyl]methyl}-1-isoquinolin-5-ylurea] | 0.0052 µM |
| O=C(NCc1ccc(N2CCCCCC2)cc1Cl)Nc1cccc2[nH]ncc12 [1-{[4-(azepan-1-yl)-2-chlorophenyl]methyl}-3-1H-indazol-4-ylurea] | 0.19 µM |
| O=C(NCc1ccc(N2CCCCCC2)c(F)c1)Nc1cccc2cnccc12 [3-{[4-(azepan-1-yl)-3-fluorophenyl]methyl}-1-isoquinolin-5-ylurea] | 0.0028 µM |
| O=C(NCc1ccc(N2CCCCCC2)c(C(F)(F)F)c1)Nc1cccc2cnccc12 [3-{[4-(azepan-1-yl)-3-(trifluoromethyl)phenyl]methyl}-1-isoquinolin-5-ylurea] | 0.0046 µM |
| Cc1cc2c(NC(=O)NCc3ccc(N4CCCCCC4)cc3)cccc2cn1 [3-{[4-(azepan-1-yl)phenyl]methyl}-1-(3-methylisoquinolin-5-yl)urea] | 0.0038 µM |
| O=C(NCc1cc(F)c(N2CCCCCC2)c(F)c1)Nc1cccc2[nH]ncc12 [1-{[4-(azepan-1-yl)-3,5-difluorophenyl]methyl}-3-1H-indazol-4-ylurea] | 0.0393 µM |
| CN(C)c1ccc(CNC(=O)Nc2cccc3cnccc23)cc1 [3-{[4-(dimethylamino)phenyl]methyl}-1-isoquinolin-5-ylurea] | 0.157 µM |
| O=C(NCc1ccc(N2[C@@H]3CCC[C@H]2CC3)cc1Cl)Nc1cccc2[nH]ncc12 [1-({4-[(1R,5S)-8-azabicyclo[3.2.1]octan-8-yl]-2-chlorophenyl}methyl)-3-1H-indazol-4-ylurea] | 0.0588 µM |
| CC1CN(c2ccc(CNC(=O)Nc3cccc4cnccc34)cc2)CC(C)O1 (stereo not given) [3-{[4-(2,6-dimethylmorpholin-4-yl)phenyl]methyl}-1-isoquinolin-5-ylurea] | 0.258 µM |
| O=C(NCc1ccc(N2[C@@H]3CCC[C@H]2CC3)cc1)Nc1cccc2[nH]ncc12 [1-({4-[(1R,5S)-8-azabicyclo[3.2.1]octan-8-yl]phenyl}methyl)-3-1H-indazol-4-ylurea] | 0.018 µM |
| O=C(NCc1cc(F)c(N2CCOCC2)c(F)c1)Nc1cccc2cnccc12 [3-{[3,5-difluoro-4-(morpholin-4-yl)phenyl]methyl}-1-isoquinolin-5-ylurea] | 0.0093 µM |
| Cc1cc2c(NC(=O)NCc3ccc(N4Cc5ccccc5C4)c(F)c3)cccc2cn1 [3-{[4-(2,3-dihydro-1H-isoindol-2-yl)-3-fluorophenyl]methyl}-1-(3-methylisoquinolin-5-yl)urea] | 7.36 µM |
| O=C(NCc1ccc(N2CCCCC2)cc1)Nc1cccc2cnccc12 [1-isoquinolin-5-yl-3-{[4-(piperidin-1-yl)phenyl]methyl}urea] | 0.0073 µM |
